Measurements reported in the Kinase Knowledgebase extract (Sharma et al. 2016).

molecular target: PIK3CA (human) (UniProt P42336); assay: Assessment of PIK3CA Kinase Activity
Sequence (P42336 whole entry, looked up): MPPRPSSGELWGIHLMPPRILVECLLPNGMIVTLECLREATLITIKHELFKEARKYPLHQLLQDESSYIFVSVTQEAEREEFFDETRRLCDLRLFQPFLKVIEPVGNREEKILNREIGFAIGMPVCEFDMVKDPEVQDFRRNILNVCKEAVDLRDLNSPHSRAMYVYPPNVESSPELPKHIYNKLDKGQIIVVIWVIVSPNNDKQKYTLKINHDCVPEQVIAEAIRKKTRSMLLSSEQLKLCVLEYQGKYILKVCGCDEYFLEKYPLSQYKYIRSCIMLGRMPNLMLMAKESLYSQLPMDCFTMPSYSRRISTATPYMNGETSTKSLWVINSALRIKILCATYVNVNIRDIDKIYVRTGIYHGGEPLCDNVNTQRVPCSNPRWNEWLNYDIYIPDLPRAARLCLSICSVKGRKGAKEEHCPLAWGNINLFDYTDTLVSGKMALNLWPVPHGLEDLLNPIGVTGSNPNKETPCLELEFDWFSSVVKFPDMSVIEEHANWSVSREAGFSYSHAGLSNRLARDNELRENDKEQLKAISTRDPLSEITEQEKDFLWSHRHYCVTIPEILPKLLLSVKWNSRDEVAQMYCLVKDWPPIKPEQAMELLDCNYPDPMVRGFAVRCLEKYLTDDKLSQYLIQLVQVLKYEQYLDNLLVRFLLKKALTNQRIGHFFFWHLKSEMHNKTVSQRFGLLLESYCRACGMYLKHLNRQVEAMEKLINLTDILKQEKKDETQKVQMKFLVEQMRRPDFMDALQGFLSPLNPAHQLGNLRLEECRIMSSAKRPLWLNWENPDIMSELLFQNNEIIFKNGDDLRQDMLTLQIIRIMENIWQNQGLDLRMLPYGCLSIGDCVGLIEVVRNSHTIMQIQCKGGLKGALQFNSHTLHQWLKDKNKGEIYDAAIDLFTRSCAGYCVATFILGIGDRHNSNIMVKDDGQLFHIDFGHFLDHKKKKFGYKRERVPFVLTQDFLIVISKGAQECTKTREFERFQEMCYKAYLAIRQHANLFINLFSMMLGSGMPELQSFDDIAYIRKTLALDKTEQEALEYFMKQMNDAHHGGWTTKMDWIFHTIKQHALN

IC50 [nM] | Compound
< 1000 | CCN1[C@H](C)CN(c2ccc3c(n2)-c2sc(-c4ncnn4-c4ccc(F)cc4F)cc2CCO3)C[C@@H]1C
< 1000 | Cc1c[nH]c(=O)c(-c2ccc3c(c2)-c2nc(-c4ncnn4C(C)C)sc2CCO3)c1
< 1000 | COC1CCN(C(=O)c2nc3c(s2)CCOc2cc(-c4cn[nH]c4)ccc2-3)CC1
< 1000 | OCCn1cc(-c2ccc3c(c2)OCCc2sc(-c4ncnn4-c4ccc(F)cc4F)nc2-3)cn1
< 1000 | OCCNc1ccc2c(n1)-c1sc(-c3ncnn3-c3ccc(F)cc3F)cc1CCO2
< 1000 | CC(C)n1ncnc1-c1nc2c(s1)CCOc1cc(C3CCN(CCS(=O)(=O)N(C)C)CC3)ccc1-2
< 1000 | CC(C)n1ncnc1-c1nc2c(s1)CCOc1ccc(-c3ccc(=O)[nH]c3)cc1-2
< 1000 | CC(C)n1ncnc1-c1nc2c(s1)CCOc1ccc(-c3cccn(CC(N)=O)c3=O)cc1-2
< 1000 | CNC1CCN(C(=O)c2nc3c(s2)CCOc2cc(-c4cn[nH]c4)ccc2-3)C1 (stereo unspecified)
< 1000 | CC(C)n1ncnc1-c1nc2c(s1)CCOc1ccc(C(O)C(F)(F)F)cc1-2 (stereo unspecified)
< 1000 | CN(C)C(=O)N1CCN(C(=O)c2nc3c(s2)CCOc2cc(-c4cn[nH]c4)ccc2-3)CC1
< 1000 | CS(=O)(=O)N1CC(Nc2ccc3c(n2)-c2sc(-c4ncnn4-c4ccc(F)cc4F)cc2CCO3)C1
< 1000 | FC(F)(F)Cn1ncnc1-c1nc2c(s1)CCOc1ccc(-c3cnn(CCN4CCOCC4)c3)cc1-2
< 1000 | CN(C)C(=O)CNc1ccc2c(n1)-c1sc(-c3ncnn3-c3ccc(F)cc3F)cc1CCO2
< 1000 | N#CC1CCN(C(=O)c2nc3c(s2)CCOc2cc(-c4cn[nH]c4)ccc2-3)CC1
< 1000 | CC(C)n1cnnc1-c1nc2c(s1)CCOc1cc(CNCC(N)=O)ccc1-2
< 1000 | CC(C)n1ncnc1-c1cc2c(s1)-c1ccc(C3CNC3)cc1OCC2
< 1000 | Fc1ccc(-n2ncnc2-c2cc3c(s2)-c2nc(-c4ccc(N5CCCCC5)nc4)ccc2OCC3)c(F)c1
< 1000 | CC(C)(N)Cn1cc(-c2ccc3c(c2)OCCc2sc(-c4ncnn4CC(F)(F)F)nc2-3)cn1
< 1000 | OCCn1cc(-c2ccc3c(c2)OCCc2sc(-c4ncnn4CC(F)(F)F)nc2-3)cn1
< 1000 | CC(C)n1ncnc1-c1nc2c(s1)CCOc1ccc(C#N)cc1-2
< 1000 | Fc1ccc(-n2ncnc2-c2cc3c(s2)-c2nc(N4CCN(CC(F)(F)F)CC4)ccc2OCC3)c(F)c1

IC50 [nM] | Compound
< 1000 | Cc1nc(-c2nc3c(s2)CCOc2cc(C4CN(CCO)C4)ccc2-3)n(C(C)C)n1
< 1000 | CC(C)n1ncnc1-c1nc2c(s1)CCOc1ccc(C3CN(CC(C)(C)O)C3)cc1-2
< 1000 | O=C(c1nc2c(s1)CCOc1cc(-c3cn[nH]c3)ccc1-2)N1CCCN(c2ccccn2)CC1
< 1000 | COc1ccc(-c2ccc3c(c2)-c2nc(-c4ncnn4C(C)C)sc2CCO3)cn1
< 1000 | COc1ccncc1-c1ccc2c(c1)-c1nc(-c3ncnn3C(C)C)sc1CCO2
< 1000 | CN(C)S(=O)(=O)N1CCN(C(=O)c2nc3c(s2)CCOc2cc(-c4cn[nH]c4)ccc2-3)CC1
< 1000 | CC(C)(O)Cn1cc(-c2ccc3c(c2)OCCc2sc(NC(C)(C)CO)nc2-3)cn1
< 1000 | CNC(=O)c1ccc2c(c1)OCCc1cc(C(=O)N(C)c3cc(C(=O)NC[C@H](C)O)ccc3Cl)sc1-2
< 1000 | COc1ccc(CNc2ccc3c(n2)-c2sc(-c4ncnn4-c4ccc(F)cc4F)cc2CCO3)cc1
< 1000 | Fc1ccc(-n2ncnc2-c2cc3c(s2)-c2nc(N4CCCNCC4)ccc2OCC3)c(F)c1
< 1000 | CC(C)n1ncnc1-c1nc2c(s1)CCOc1cc(-c3cccnc3F)ccc1-2
< 1000 | Fc1ccc(-n2ncnc2-c2cc3c(s2)-c2nc(NCCN4CCOCC4)ccc2OCC3)c(F)c1
< 1000 | CC(O)C(=O)N1CC(n2cc(-c3ccc4c(c3)OCCc3sc(-c5ncnn5C(C)C)nc3-4)cn2)C1 (stereo unspecified)
< 1000 | OCC(O)CNc1ccc2c(n1)-c1sc(-c3ncnn3-c3ccc(F)cc3F)cc1CCO2 (stereo unspecified)
< 1000 | CC(C)n1ncnc1-c1nc2c(s1)CCOc1cc(C3CN(Cc4ncco4)C3)ccc1-2
< 1000 | CS(=O)(=O)c1cccc(-c2ccc3c(c2)OCCc2sc(-c4ncnn4CC(F)(F)F)nc2-3)c1
< 1000 | CNS(=O)(=O)CCN1CC(c2ccc3c(c2)OCCc2sc(-c4ncnn4C(C)C)nc2-3)C1
< 1000 | CC(=O)N1CC(N(C(C)=O)c2ccc3c(n2)-c2sc(-c4ncnn4-c4ccc(F)cc4F)cc2CCO3)C1
< 1000 | Oc1ccc(-c2ccc3c(n2)-c2sc(-c4ncnn4-c4ccc(F)cc4F)cc2CCO3)cn1
< 1000 | CC(C)n1ncnc1-c1nc2c(s1)CCOc1ccc(-c3ccc(F)nc3)cc1-2
< 1000 | Cc1ccncc1-c1ccc2c(c1)-c1nc(-c3ncnn3C(C)C)sc1CCO2
< 1000 | CC(C)n1ncnc1-c1nc2c(s1)CCOc1ccc(-c3ccc(=O)n(C)c3)cc1-2

IC50 [nM] | Compound
< 1000 | O=C(c1nc2c(s1)CCOc1cc(-c3cn[nH]c3)ccc1-2)N1CCN(c2ncccn2)CC1
< 1000 | CN1CCN(C(=O)c2ccc(Cl)c(N(C)C(=O)c3cc4c(s3)-c3ccc(C(=O)NCCS(C)(=O)=O)cc3OCC4)c2)CC1
< 1000 | CC(C)n1cnnc1-c1nc2c(s1)CCOc1cc(C(=O)Nc3ccon3)ccc1-2
< 1000 | O=C(c1nc2c(s1)CCOc1cc(-c3cn[nH]c3)ccc1-2)N1CCCCCCC1
< 1000 | Cc1ncccc1-c1ccc2c(n1)-c1sc(-c3nccn3C(C)C)cc1CCO2
< 1000 | CC(C)n1nc(N)nc1-c1cc2c(s1)-c1ccc(-c3cnn(CC(C)(C)O)c3)cc1OCC2
< 1000 | CN(CCO)C(=O)c1nc2c(s1)CCOc1cc(-c3cn[nH]c3)ccc1-2
< 1000 | CNC(=O)c1ccc2c(c1)OCCc1cc(C(=O)N(C)c3cc(C(=O)NCCO)ccc3Cl)sc1-2
< 1000 | Fc1ccc(-n2ncnc2-c2cc3c(s2)-c2nc(NCC4CCCC4)ccc2OCC3)c(F)c1
< 1000 | CN(C(=O)c1cc2c(s1)-c1ccc(C(=O)NCCS(C)(=O)=O)cc1OCC2)c1cc(C(=O)N2CCNCC2)ccc1Cl
< 1000 | CC1CN(C(=O)c2nc3c(s2)CCOc2cc(-c4cn[nH]c4)ccc2-3)CCN1 (stereo unspecified)
< 1000 | CNC(=O)c1ccc2c(c1)OCCc1cc(C(=O)N(C)c3cc(C(=O)NC[C@@H](C)O)ccc3Cl)sc1-2
< 1000 | Fc1ccc(-n2ncnc2-c2cc3c(s2)-c2nc(N4CC5CC4CN5)ccc2OCC3)c(F)c1 (stereo unspecified)
< 1000 | CC(CO)n1ncnc1-c1nc2c(s1)CCOc1cc(-c3cnn(CC(C)(C)O)c3)ccc1-2 (stereo unspecified)
< 1000 | COCc1nc(-c2nc3c(s2)CCOc2ccccc2-3)n(C(C)C)n1
< 1000 | C[C@@H]1CN(c2ccc3c(n2)-c2sc(-c4ncnn4-c4ccc(F)cc4F)cc2CCO3)C[C@H](C)N1CCF
< 1000 | CC(C)n1ncnc1-c1nc2c(s1)CCOc1ccc(-c3cncc(S(C)(=O)=O)c3)cc1-2
< 1000 | CC(C)N(CCO)C(=O)c1nc2c(s1)CCOc1cc(-c3cnn(CC(C)(C)O)c3)ccc1-2
< 1000 | CC(C)n1ncnc1-c1nc2c(s1)CCOc1cc(C3CN(S(C)(=O)=O)C3)ccc1-2
< 1000 | O=C(O)CNc1ccc2c(n1)-c1sc(-c3ncnn3-c3ccc(F)cc3F)cc1CCO2
< 1000 | C[C@@H](O)CNC(=O)c1ccc(Cl)c(N(C)C(=O)c2cc3c(s2)-c2ccc(C(=O)NCCS(C)(=O)=O)cc2OCC3)c1
< 1000 | Cc1nc(-c2nc3c(s2)CCOc2cc(C(C)NC(N)=O)ccc2-3)n(C(C)C)n1 (stereo unspecified)
